Assay results published in US20210087206A1, “MACROCYCLIC KINASE INHIBITORS AND THEIR USE” (TURNING POINT THERAPEUTICS, INC., priority 2017, published 2021).

Assays:
Experiment in all cases: Cell proliferation assay (CellTiter-Glo)
Assay type in all cases: cell-based
[1] = target: T1, BaF3 EML4-ALK (Homo sapiens, UniProt Q9UM73); details: anti-cell proliferation, 72 hours
T1 construct: The EML4-ALK gene (variant 1) was synthesized at GenScript and cloned into pCDH-CMV-MCS-EF1-Puro plasmid (System Biosciences, Inc); fused on or other part: EML4 N-terminal part (variant 1: exons 1-13, with the coiled-coil that oligomerises the fusion) fused to the intracellular part of ALK, which contains the kinase domain; Q9HC35 (Echinoderm microtubule-associated protein-like 4)
Summary of the method: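 Ba/F3 cells were lentivirally transduced with EML4-ALK variant 1 and selected for puromycin resistance and IL-3-independent growth. Proliferation was measured by CellTiter-Glo ATP luminescence to give IC50.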

[2] = system: KM12 (TPM3-TRKA); details: Homo sapiens, anti-cell proliferation, 72 hours
Summary of the method: (§1)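 Cells seeded 24 h, then exposed to compounds for 72 h at 37° C., 5% CO2. Proliferation read by CellTiter-Glo luminescent ATP detection; IC50 from dose-response fits.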

[3] = system: KG-1 cell (OP2-FGFR1); details: Homo sapiens, anti-cell proliferation, 72 hours
Summary of the method: as §1

T1 sequence (Q9UM73 whole entry, stated change not applied, the tested form may be a part): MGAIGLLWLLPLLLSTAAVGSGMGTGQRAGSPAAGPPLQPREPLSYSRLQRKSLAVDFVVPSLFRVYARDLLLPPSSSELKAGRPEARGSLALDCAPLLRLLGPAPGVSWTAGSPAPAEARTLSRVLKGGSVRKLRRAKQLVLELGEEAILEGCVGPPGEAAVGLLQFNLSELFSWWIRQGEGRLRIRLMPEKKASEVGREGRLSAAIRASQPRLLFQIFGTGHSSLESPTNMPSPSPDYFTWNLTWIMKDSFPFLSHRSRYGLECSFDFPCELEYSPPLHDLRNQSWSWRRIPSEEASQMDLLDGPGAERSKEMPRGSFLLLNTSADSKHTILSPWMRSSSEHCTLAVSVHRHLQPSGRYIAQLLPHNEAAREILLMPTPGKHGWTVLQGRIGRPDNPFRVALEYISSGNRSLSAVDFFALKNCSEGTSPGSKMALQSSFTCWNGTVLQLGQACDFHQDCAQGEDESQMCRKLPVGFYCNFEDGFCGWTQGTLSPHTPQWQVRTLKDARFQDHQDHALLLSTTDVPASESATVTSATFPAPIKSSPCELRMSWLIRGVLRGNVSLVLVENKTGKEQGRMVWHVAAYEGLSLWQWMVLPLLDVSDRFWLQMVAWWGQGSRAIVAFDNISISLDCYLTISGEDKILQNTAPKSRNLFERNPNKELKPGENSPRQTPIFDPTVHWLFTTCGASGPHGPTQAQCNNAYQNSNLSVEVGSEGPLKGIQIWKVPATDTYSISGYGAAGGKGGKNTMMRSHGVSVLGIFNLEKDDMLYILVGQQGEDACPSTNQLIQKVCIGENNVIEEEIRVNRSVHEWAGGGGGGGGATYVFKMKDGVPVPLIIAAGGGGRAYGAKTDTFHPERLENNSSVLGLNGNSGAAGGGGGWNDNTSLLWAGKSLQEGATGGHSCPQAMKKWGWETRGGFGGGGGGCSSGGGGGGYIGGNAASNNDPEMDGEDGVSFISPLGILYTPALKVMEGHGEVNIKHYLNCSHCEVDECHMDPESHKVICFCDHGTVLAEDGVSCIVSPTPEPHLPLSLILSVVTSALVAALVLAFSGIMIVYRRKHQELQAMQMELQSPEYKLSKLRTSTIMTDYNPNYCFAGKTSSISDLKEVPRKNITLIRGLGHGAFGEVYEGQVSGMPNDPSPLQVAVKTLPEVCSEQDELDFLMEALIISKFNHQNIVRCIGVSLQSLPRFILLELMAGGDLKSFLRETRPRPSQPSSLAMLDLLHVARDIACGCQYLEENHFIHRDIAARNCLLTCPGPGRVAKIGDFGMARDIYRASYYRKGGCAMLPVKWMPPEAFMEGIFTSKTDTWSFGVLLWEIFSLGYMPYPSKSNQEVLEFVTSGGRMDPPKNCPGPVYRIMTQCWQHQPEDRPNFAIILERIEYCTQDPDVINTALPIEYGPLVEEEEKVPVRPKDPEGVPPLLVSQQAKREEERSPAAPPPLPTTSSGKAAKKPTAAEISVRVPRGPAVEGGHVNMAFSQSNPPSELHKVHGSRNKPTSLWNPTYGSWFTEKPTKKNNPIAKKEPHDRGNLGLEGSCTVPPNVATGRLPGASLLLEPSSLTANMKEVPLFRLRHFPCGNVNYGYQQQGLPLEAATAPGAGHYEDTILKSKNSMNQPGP

| SMILES | IC50 [1] [nM] | IC50 [2] [nM] | IC50 [3] [nM] |
| --- | --- | --- | --- |
| C[C@@H]1COc2ncc(F)cc2[C@@H](C)N2c3nc4c(cnn4cc3OC[C@H]2C)C(=O)N1 [Compound 83, (4R,6R,13R)-8-fluoro-4,6,13-trimethyl-3,4,13,14-tetrahydro-6H-18,1-(metheno)[1,4]oxazino[3,4-i]pyrazolo[4,3-f]pyrido[3,2-l][1,4,8,10]oxatriazacyclotridecin-15(12H)-one] | 139 | < 0.2 | 30.2 |
| COC[C@H]1COc2ncc(F)cc2CN2c3nc4c(cnn4cc3OC[C@H]2C)C(=O)N1 [Compound 92, (4R,13S)-8-fluoro-13-(methoxy-methyl)-4-methyl-3,4,13,14-tetrahydro-6H-18,1-(metheno)-[1,4]oxazino[3,4-i]pyrazolo[4,3-f]pyrido[3,2-l][1,4,8,10]oxatriaza-cyclotridecin-15(12H)-one] | 2000 | 5.7 | 328 |
| C[C@@H]1COc2cn3ncc4c3nc2N(Cc2cc(F)cnc2OCCC(C)(C)NC4=O)C1 [Compound 99, (17S)-12-fluoro-6,6,17-trimethyl-5,6,7,8,17,18-hexahydro-4H,14H,16H-1,20-(metheno)[1,4]oxazepino[4,3-e]pyrazolo[3,4-h]pyrido[2,3-b][1,5,7,11]oxatriazacyclotetradecin-4-one] | 2000 | 63.7 | 1370 |
| C[C@@H]1COc2ncc(F)cc2CN2c3nc4c(cnn4cc3OC[C@H]2CC#N)C(=O)N1 [Compound 41, [(4R,13R)-8-fluoro-13-methyl-15-oxo-3,4,12,13,14,15-hexahydro-6H-18,1-(metheno)[1,4]oxazino[3,4-i]pyrazolo[4,3-f]pyrido[3,2-][1,4,8,10]oxatriazacyclotridecin-4-yl]acetonitrile] | 1170 | 0.5 | 611 |
| C[C@H]1CNC(=O)c2cnn3cc4c(nc23)N(Cc2cc(F)cnc2OC1)[C@H](C)CO4 [Compound 35, (7S,16R)-12-fluoro-7,16-dimethyl-5,6,7,8,16,17-hexahydro-4H,14H-1,19-(metheno)[1,4]oxazino[4,3-e]pyrazolo[3,4-h]pyrido[2,3-b] [1,5,7,11]oxatriazacyclotetra-decin-4-one] | 48.2 | < 0.2 | 33.5 |
| C[C@@H]1COc2cn3ncc4c3nc2N1Cc1cc(F)cnc1OCC(F)(F)CNC4=O [Compound 79, (16R)-7,7,12-trifluoro-16-methyl-5,6,7,8,16,17-hexahydro-4H,14H-1,19-(metheno)[1,4]oxazino[4,3-e]pyrazolo[3,4-h]pyrido[2,3-b][1,5,7,11]oxatriazacyclotetra-decin-4-one] | 31.7 | < 0.2 | 9.9 |
| C[C@@H]1COc2cn3ncc4c3nc2N1Cc1cc(F)cnc1O[C@H]1CCC[C@@H]1NC4=O [Compound 53, (8R,15aS,18aS)-12-fluoro-8-methyl-7,8,15a,16,17,18,18a, 19-octahydro-10H,20H-3,5-(metheno)cyclopenta[b][1,4]-oxazino[3,4-i]pyrazolo[4,3-f]-pyrido[3,2-l][1,4,8,10]oxatriaza-cyclotridecin-20-one] | 113 | < 0.2 | 183 |
| C[C@H]1CNC(=O)c2cnn3cc4c(nc23)N(Cc2cc(F)cnc2O1)C1(CO4)CC(F)(F)C1 [Compound 64, (12′S)-3,3,8′-trifluoro-12′-methyl-3′H,6′H,12′H,13′H,14′H,15′H-spiro[cyclobutane-1,4′-[2,11]-dioxa[5,10,14,17,18,19]hexaaza-[18,1](metheno)[1,4]oxazino[3,4-i]pyrazolo[4,3-f]pyrido[3,2-l] [1,4,8,10]oxatriazacyclotridecin]-15′-one] | 1230 | < 0.2 | 10000 |
| C[C@@H]1COc2ccc(F)cc2CN2c3nc4c(cnn4cc3OC[C@H]2C)C(=O)N1 [Compound 9, (4R,13R)-8-fluoro-4,13-dimethyl-3,4,13,14-tetrahydro-6H-18,1-(metheno)[1,4]oxazino[3,4-i]-pyrazolo[4,3-f][1,4,8,10]benzo-xatriazacyclotridecin-15(12H)-one] | 11.7 | 0.2 | 111 |
| C[C@H]1CNC(=O)c2cnn3cc4c(nc23)N(Cc2cc(F)ccc2O1)[C@@H](C)CCO4 [Compound 18, (5S,13S)-9-fluoro-5,13-dimethyl-4,5,14,15-tetrahydro-3H,7H-19,1-(metheno)[1,4]oxazepino[3,4-i]-pyrazolo[4,3-f][1,4,8,10]benzo-xatriaxacyclotridecin-16(13H)-one] | > 10000 | < 0.2 | > 10000 |
| COC[C@@H]1COc2cn3ncc4c3nc2N1Cc1cc(F)cnc1OC[C@@H](C)NC4=O [Compound 44, (4R,13R)-8-fluoro-4-(methoxymethyl)-13-methyl-3,4,13,14-tetrahydro-6H-18,1-(metheno)[1,4]oxazino[3,4-i]pyrazolo[4,3-f]pyrido[3,2-1][1,4,8,10]oxatriazacyclotridecin-15(12H)-one] | 549 | < 0.2 | 168 |
| C[C@@H]1COc2cn3ncc4c3nc2N1Cc1cc(F)cnc1OC[C@H](O)CNC4=O [Compound 89, (7R,16R)-12-fluoro-7-hydroxy-16-methyl-5,6,7,8,16,17-hexa-hydro-4H,14H-1,19-(metheno)-[1,4]oxazino[4,3-e]pyrazolo[3,4-h]pyrido[2,3-b][1,5,7,11]oxatriaza-cyclotetradecin-4-one] | 1890 | < 0.2 | 394 |
| C[C@@H]1COc2cn3ncc4c3nc2N1Cc1cc(F)cnc1OCC(C)(C)NC4=O [Compound 40, (4R)-8-fluoro-4,13,13-trimethyl-3,4,13,14-tetrahydro-6H-18,1-(metheno)[1,4]oxazino[3,4-i]-pyrazolo[4,3-f]pyrido[3,2-l] [1,4,8,10]oxatriazacyclotridecin-15(12H)-one] | < 0.2 | < 0.2 | 0.2 |
| C=C1COc2cn3ncc4c3nc2N1Cc1cc(F)cnc1OC[C@@H](C)NC4=O [Compound 42, (13R)-8-fluoro-13-methyl-4-methylidene-3,4,13,14-tetrahydro-6H-18,1-(metheno)[1,4]oxazino[3,4-i]pyrazolo[4,3-f]pyrido[3,2-1][1,4,8,10]oxatriazacyclotridecin-15(12H)-one] | 1200 | < 0.2 | 1230 |
| C[C@@H]1COc2cn3ncc4c3nc2N1Cc1cc(F)cnc1OCC[C@H](C)NC4=O [Compound 48, (6S,16R)-12-fluoro-6,16-dimethyl-5,6,7,8,16,17-hexahydro-4H,14H-1,19-(metheno)[1,4]oxazino[4,3-e]pyrazolo[3,4-h]pyrido[2,3-b] [1,5,7,11]oxatriazacyclotetra-decin-4-one] | 22.1 | < 0.2 | 12.9 |
| C[C@H]1COc2cn3ncc4c3nc2N1Cc1cc(F)ccc1OCCNC4=O [Compound 2, (4S)-8-fluoro-4-methyl-3,4,13,14-tetrahydro-6H-18,1-(metheno)[1,4]oxazino[3,4-i]pyrazolo[4,3-f][1,4,8,10]benzoxatriazacyclotridecin-15(12H)-one] | > 10000 | 26.7 | > 10000 |
| C[C@@H]1COc2cn3ncc4c3nc2N1Cc1cc(F)cnc1OCC1(CC1)CNC4=O [Compound 67, (16′R)-12′-fluoro-16′-methyl-4′H,5′H,6′H,8′H,14′H,16′H,17′H-spiro[cyclopropane-1,7′-[9,18]-dioxa[1,2,5,10,15,20]hexaaza-[1,19](metheno)[1,4]oxazino[4,3-e]pyrazolo[3,4-h]pyrido[2,3-b] [1,5,7,11]oxatriazacyclotetradecin]-4′-one] | 32.4 | < 0.2 | 8.8 |
| CC[C@@H]1COc2cn3ncc4c3nc2N1Cc1cc(F)cnc1OCC(C)(C)CNC4=O [Compound 76, (16R)-16-ethyl-12-fluoro-7,7-dimethyl-5,6,7,8,16,17-hexahydro-4H,14H-1,19-(metheno)[1,4]-oxazino[4,3-e]pyrazolo[3,4-h]-pyrido[2,3-b][1,5,7,11]oxatriaza-cyclotetradecin-4-one] | 35.3 | < 0.2 | 0.8 |
| C[C@H]1CNC(=O)c2cnn3cc4c(nc23)N(Cc2cc(F)ccc2O1)[C@@H](C)CO4 [Compound 4, (4S,12S)-8-fluoro-4,12-dimethyl-3,4,13,14-tetrahydro-6H-18,1-(metheno)[1,4]oxazino[3,4-i]pyrazolo[4,3-f][1,4,8,10]benzoxatriazacyclotridecin-15(12H)-one] | > 10000 | 0.2 | > 10000 |
| C[C@H]1CNC(=O)c2cnn3cc4c(nc23)N(Cc2cc(F)cnc2O1)C[C@@H](F)CO4 [Compound 93, (4R,13S)-4,9-difluoro-13-methyl-4,5,14,15-tetrahydro-3H,7H-19,1-(metheno)[1,4]oxazepino[3,4-i]-pyrazolo[4,3-f]pyrido[3,2-l] [1,4,8,10]oxatriazacyclotridecin-16(13H)-one] | > 10000 | 189 | > 10000 |
| C[C@@H]1COc2ncc(F)cc2CN2C[C@@H](O)COc3cn4ncc(c4nc32)C(=O)N1 [Compound 88, (4R,14R)-9-fluoro-4-hydroxy-14-methyl-4,5,14,15-tetrahydro-3H,7H-19,1-(metheno)[1,4]-oxazepino[3,4-i]pyrazolo[4,3-f]pyrido[3,2-l][1,4,8,10]oxatriaza-cyclotridecin-16(13H)-one] | 5000 | 3.1 | 3000 |
